According to paper PMC5218480 (PLoS ONE, 2017):

Tested on: MV-4-11 cells
Assay: Gene expression microarray analysis (Affymetrix PrimeView) and GSEA
Assay type: cell-based, human
Set-up: RFU PODN (11730768_x_at) / Fold change /veh PODN (11730768_x_at) / RFU LINC00158 (11744669_a_at) / Fold change /veh LINC00158 (11744669_a_at) / RFU DUSP10 (11751237_a_at) / Fold change /veh DUSP10 (11751237_a_at) / RFU ID3 (11757404_x_at) / Fold change /veh ID3 (11757404_x_at) / RFU PLEKHG5 (11737974_s_at) / Fold change /veh PLEKHG5 (11737974_s_at) / RFU LRRC4B (11730491_at) / Fold change /veh LRRC4B (11730491_at) / RFU GIMAP4 (11747438_a_at) / Fold change /veh GIMAP4 (11747438_a_at) / RFU KRT8 (11758183_x_at) / Fold change /veh KRT8 (11758183_x_at) / RFU CNN1 (11734310_a_at) / Fold change /veh CNN1 (11734310_a_at) / RFU VPS37D (11726825_at) / Fold change /veh VPS37D (11726825_at) / RFU C10orf10 (11716522_x_at) / Fold change /veh C10orf10 (11716522_x_at) / RFU KIR2DL2 /// KIR2DL4 /// KIR2DL5A /// KIR2DL5B /// KIR2DS1 /// KIR2DS2 /// KIR2DS3 /// KIR2DS4 /// KIR3DL3 /// KIR3DL3 /// KIR3DS1 (11738374_at) / Fold change /veh KIR2DL2 /// KIR2DL4 /// KIR2DL5A /// KIR2DL5B /// KIR2DS1 /// KIR2DS2 /// KIR2DS3 /// KIR2DS4 /// KIR3DL3 /// KIR3DL3 /// KIR3DS1 (11738374_at) / RFU C1QL1 (11718748_at) / Fold change /veh C1QL1 (11718748_at) / RFU TMPRSS4 (11747572_a_at) / Fold change /veh TMPRSS4 (11747572_a_at) / RFU HAMP (11756126_x_at) / Fold change /veh HAMP (11756126_x_at) / RFU RNFT2 (11725882_a_at) / Fold change /veh RNFT2 (11725882_a_at) / RFU NR4A2 (11747474_a_at) / Fold change /veh NR4A2 (11747474_a_at) / RFU ABCC12 (11746883_a_at) / Fold change /veh ABCC12 (11746883_a_at) / RFU TMEM136 (11760407_x_at) / Fold change /veh TMEM136 (11760407_x_at) / RFU CLDN22 /// WWC2 (11732394_at) / Fold change /veh CLDN22 /// WWC2 (11732394_at) / RFU HLA-DPB1 (11760878_x_at) / Fold change /veh HLA-DPB1 (11760878_x_at) / RFU SPINT1 (11716480_a_at) / Fold change /veh SPINT1 (11716480_a_at) / RFU GAP43 (11754022_s_at) / Fold change /veh GAP43 (11754022_s_at) / RFU A4GNT (11735810_at) / Fold change /veh A4GNT (11735810_at) / RFU PRB3 (11715151_x_at) / Fold change /veh PRB3 (11715151_x_at) / RFU TUBB4B (11761932_at) / Fold change /veh TUBB4B (11761932_at) / RFU CAPN14 (11732068_a_at) / Fold change /veh CAPN14 (11732068_a_at) / RFU TMCC2 (11721928_a_at) / Fold change /veh TMCC2 (11721928_a_at) / RFU IRGQ (11745062_a_at) / Fold change /veh IRGQ (11745062_a_at) / RFU FAM174B (11720279_a_at) / Fold change /veh FAM174B (11720279_a_at) / RFU TMPRSS4 (11748680_a_at) / Fold change /veh TMPRSS4 (11748680_a_at) / RFU FAM212B (11763350_a_at) / Fold change /veh FAM212B (11763350_a_at) / RFU PLEKHG5 (11743358_a_at) / Fold change /veh PLEKHG5 (11743358_a_at) / RFU ZSCAN30 (11745921_a_at) / Fold change /veh ZSCAN30 (11745921_a_at) / RFU CMKLR1 (11741424_a_at) / Fold change /veh CMKLR1 (11741424_a_at) / RFU LOC101060620 /// MAPK8IP1 (11723275_at) / Fold change /veh LOC101060620 /// MAPK8IP1 (11723275_at) / RFU SPTSSB (11747773_x_at) / Fold change /veh SPTSSB (11747773_x_at) / RFU PRSS12 (11739890_at) / Fold change /veh PRSS12 (11739890_at) / RFU BIN1 (11741810_x_at) / Fold change /veh BIN1 (11741810_x_at) / RFU WNT11 (11732464_a_at) / Fold change /veh WNT11 (11732464_a_at) / RFU C10orf10 (11716521_a_at) / Fold change /veh C10orf10 (11716521_a_at) / RFU C5orf56 (11738089_at) / Fold change /veh C5orf56 (11738089_at) / RFU CYB561 (11721691_x_at) / Fold change /veh CYB561 (11721691_x_at) / RFU ANKRD19P (11752326_a_at) / Fold change /veh ANKRD19P (11752326_a_at) / RFU OR2T12 /// OR2T33 /// OR2T8 (11738714_s_at) / Fold change /veh OR2T12 /// OR2T33 /// OR2T8 (11738714_s_at) / RFU VCAN (11748164_a_at) / Fold change /veh VCAN (11748164_a_at) / RFU JSRP1 (11732532_at) / Fold change /veh JSRP1 (11732532_at) / RFU KRTAP10-11 (11738290_x_at) / Fold change /veh KRTAP10-11 (11738290_x_at) / RFU MYO3A (11730013_a_at) / Fold change /veh MYO3A (11730013_a_at) / RFU EBF3 (11725865_a_at) / Fold change /veh EBF3 (11725865_a_at) / RFU CAMK2N1 (11719241_x_at) / Fold change /veh CAMK2N1 (11719241_x_at) / RFU C5orf56 (11738088_a_at) / Fold change /veh C5orf56 (11738088_a_at) / RFU OLFML3 (11715873_a_at) / Fold change /veh OLFML3 (11715873_a_at) / RFU LOC100653217 /// NTM (11731650_a_at) / Fold change /veh LOC100653217 /// NTM (11731650_a_at) / RFU MAPK11 (11762145_a_at) / Fold change /veh MAPK11 (11762145_a_at) / RFU FIZ1 (11724087_x_at) / Fold change /veh FIZ1 (11724087_x_at) / RFU OASL (11726364_x_at) / Fold change /veh OASL (11726364_x_at) / RFU SOX15 (11748057_x_at) / Fold change /veh SOX15 (11748057_x_at) / RFU CD79A (11719716_a_at) / Fold change /veh CD79A (11719716_a_at) / RFU HIST1H1D (11736915_at) / Fold change /veh HIST1H1D (11736915_at) / RFU CASKIN2 (11723855_a_at) / Fold change /veh CASKIN2 (11723855_a_at) / RFU LOC730098 (11760151_x_at) / Fold change /veh LOC730098 (11760151_x_at) / RFU OR4N2 (11742367_at) / Fold change /veh OR4N2 (11742367_at) / RFU PRRT2 (11749266_a_at) / Fold change /veh PRRT2 (11749266_a_at) / RFU SNX32 (11753110_a_at) / Fold change /veh SNX32 (11753110_a_at) / RFU CDHR5 (11726645_a_at) / Fold change /veh CDHR5 (11726645_a_at) / RFU RCAN1 (11760418_a_at) / Fold change /veh RCAN1 (11760418_a_at) / RFU FAM167A (11723789_a_at) / Fold change /veh FAM167A (11723789_a_at) / RFU FAM26E (11764081_at) / Fold change /veh FAM26E (11764081_at) / RFU ISYNA1 (11749810_s_at) / Fold change /veh ISYNA1 (11749810_s_at) / RFU ACY1 (11761880_at) / Fold change /veh ACY1 (11761880_at) / RFU 11764098_at / Fold change /veh 11764098_at / RFU SAMD14 (11745864_x_at) / Fold change /veh SAMD14 (11745864_x_at) / RFU NPB (11741838_a_at) / Fold change /veh NPB (11741838_a_at) / RFU TMPRSS6 (11731388_a_at) / Fold change /veh TMPRSS6 (11731388_a_at) / RFU KRTAP10-2 (11738614_at) / Fold change /veh KRTAP10-2 (11738614_at) / RFU ARHGAP8 /// PRR5-ARHGAP8 (11727945_x_at) / Fold change /veh ARHGAP8 /// PRR5-ARHGAP8 (11727945_x_at) / RFU KRTAP5-7 /// NADSYN1 (11734609_at) / Fold change /veh KRTAP5-7 /// NADSYN1 (11734609_at) / RFU RASL12 (11751679_a_at) / Fold change /veh RASL12 (11751679_a_at) / RFU CDKN2B (11736163_a_at) / Fold change /veh CDKN2B (11736163_a_at) / RFU PRF1 (11729649_at) / Fold change /veh PRF1 (11729649_at) / RFU, ZNF638 /// ZNF638-IT1 / Fold change vs veh, ZNF638 /// ZNF638-IT1 / RFU, PANK3 / Fold change vs veh, PANK3 / RFU, SH3YL1 / Fold change vs veh, SH3YL1 / RFU, ZEB2 / Fold change vs veh, ZEB2 / RFU, NRIP1 / Fold change vs veh, NRIP1 / RFU, PTTG1IP / Fold change vs veh, PTTG1IP / RFU, CAPN2 / Fold change vs veh, CAPN2 / RFU, MED14 / Fold change vs veh, MED14 / RFU, SNORA58 / Fold change vs veh, SNORA58 / RFU, C1orf63 / Fold change vs veh, C1orf63 / RFU, LRRFIP1 / Fold change vs veh, LRRFIP1 / RFU, NDUFAF7 / Fold change vs veh, NDUFAF7 / RFU, SLC12A2 / Fold change vs veh, SLC12A2 / RFU, IBTK / Fold change vs veh, IBTK / RFU, ESF1 / Fold change vs veh, ESF1 / Fold change vs veh, TMEM50B / RFU, TAOK1 / Fold change vs veh, TAOK1 / RFU, ACBD3 / Fold change vs veh, ACBD3 / RFU, TMA16 / Fold change vs veh, TMA16 / RFU, RWDD3 / Fold change vs veh, RWDD3 / RFU, BCAT1 / Fold change vs veh, BCAT1 / RFU, EDEM3 / Fold change vs veh, EDEM3 / RFU, TMEM33 / Fold change vs veh, TMEM33 / RFU, WDR75 / Fold change vs veh, WDR75 / RFU, AHCTF1 / Fold change vs veh, AHCTF1 / RFU, TFRC / Fold change vs veh, TFRC / RFU, ZDHHC17 / Fold change vs veh, ZDHHC17 / RFU, NOM1 / Fold change vs veh, NOM1 / RFU, ARL8B / Fold change vs veh, ARL8B / RFU, ZBTB11 / Fold change vs veh, ZBTB11 / RFU, TAMM41 / Fold change vs veh, TAMM41 / RFU, KIAA1704 /// LOC100996395 / Fold change vs veh, KIAA1704 /// LOC100996395 / RFU, ING1 / Fold change vs veh, ING1 / RFU, TRMT61B / Fold change vs veh, TRMT61B / RFU, FUBP3 / Fold change vs veh, FUBP3 / RFU, TP53 / Fold change vs veh, TP53 / RFU, TNKS2 / Fold change vs veh, TNKS2 / RFU, ZFP14 / Fold change vs veh, ZFP14 / RFU, ACTR2 / Fold change vs veh, ACTR2 / RFU, PPP3R1 / Fold change vs veh, PPP3R1 / RFU, PIK3R1 / Fold change vs veh, PIK3R1 / RFU, HNRNPA1 / Fold change vs veh, HNRNPA1 / RFU, RNF170 / Fold change vs veh, RNF170 / RFU, ZNF28 / Fold change vs veh, ZNF28 / RFU, RNGTT / Fold change vs veh, RNGTT / RFU, OGT / Fold change vs veh, OGT / RFU, BRD1 / Fold change vs veh, BRD1 / RFU, MARS / Fold change vs veh, MARS / RFU, ZNF655 / Fold change vs veh, ZNF655 / RFU, FAHD1 / Fold change vs veh, FAHD1 / RFU, BDP1 / Fold change vs veh, BDP1 / RFU, LRRCC1 / Fold change vs veh, LRRCC1 / RFU, ARID1A / Fold change vs veh, ARID1A / RFU, ZNF146 / Fold change vs veh, ZNF146 / RFU, ZNF330 / Fold change vs veh, ZNF330 / RFU, GPN3 / Fold change vs veh, GPN3 / RFU, C9orf123 / Fold change vs veh, C9orf123 / RFU, N4BP2L2 / Fold change vs veh, N4BP2L2 / RFU, ARFIP1 / Fold change vs veh, ARFIP1 / RFU, FAM179B / Fold change vs veh, FAM179B / RFU, BCL10 / Fold change vs veh, BCL10 / RFU, UHRF1BP1L / Fold change vs veh, UHRF1BP1L / RFU, BET1 / Fold change vs veh, BET1 / RFU, CNOT2 / Fold change vs veh, CNOT2 / RFU, ZNF268 / Fold change vs veh, ZNF268 / Fold change vs veh, ZNF507 / RFU, DGCR2 / Fold change vs veh, DGCR2 / RFU, WDSUB1 / Fold change vs veh, WDSUB1 / Fold change vs veh, HSP90B1 /// MIR3652 / RFU, ADSS / Fold change vs veh, ADSS / RFU, GK / Fold change vs veh, GK / RFU, ZNF148 / Fold change vs veh, ZNF148 / RFU, TAF9 / Fold change vs veh, TAF9 / RFU, SLC1A5 / Fold change vs veh, SLC1A5 / RFU, SLMO2 / Fold change vs veh, SLMO2 / RFU, ABCC4 / Fold change vs veh, ABCC4 / RFU, LOC101060439 /// RAP1B / Fold change vs veh, LOC101060439 /// RAP1B / RFU, RFX7 / Fold change vs veh, RFX7 / RFU, GTPBP10 / Fold change vs veh, GTPBP10 / RFU, CNEP1R1 / Fold change vs veh, CNEP1R1 / RFU, BIVM-ERCC5 /// ERCC5 / Fold change vs veh, BIVM-ERCC5 /// ERCC5 / RFU, ILF3 / Fold change vs veh, ILF3 / RFU 11762660_at / Fold change /veh 11762660_at / RFU VCAN (11757783_s_at) / Fold change /veh VCAN (11757783_s_at) / RFU DDX43 (11728927_at) / Fold change /veh DDX43 (11728927_at) / RFU KRT8 (11758188_x_at) / Fold change /veh KRT8 (11758188_x_at) / RFU NKD1 (11759106_at) / Fold change /veh NKD1 (11759106_at) / RFU SRD5A1 (11742802_a_at) / Fold change /veh SRD5A1 (11742802_a_at) / RFU TPSAB1 /// TPSB2 (11721975_s_at) / Fold change /veh TPSAB1 /// TPSB2 (11721975_s_at) / RFU GSTM3 (11746129_a_at) / Fold change /veh GSTM3 (11746129_a_at) / RFU IL23R (11737362_x_at) / Fold change /veh IL23R (11737362_x_at) / RFU TMEM51 (11727254_a_at) / Fold change /veh TMEM51 (11727254_a_at) / RFU PIWIL2 (11732686_x_at) / Fold change /veh PIWIL2 (11732686_x_at) / RFU ORM1 (11744905_x_at) / Fold change /veh ORM1 (11744905_x_at) / RFU CCDC152 (11743942_at) / Fold change /veh CCDC152 (11743942_at) / RFU ECM1 (11717891_a_at) / Fold change /veh ECM1 (11717891_a_at) / RFU IL23R (11748794_a_at) / Fold change /veh IL23R (11748794_a_at) / RFU TNFAIP8L3 (11732012_x_at) / Fold change /veh TNFAIP8L3 (11732012_x_at) / RFU MBOAT4 (11741988_at) / Fold change /veh MBOAT4 (11741988_at) / RFU 11764193_at / Fold change /veh 11764193_at / RFU TMEM53 (11763286_at) / Fold change /veh TMEM53 (11763286_at) / RFU MAGEB2 (11727129_at) / Fold change /veh MAGEB2 (11727129_at) / RFU TMEM200A (11744735_a_at) / Fold change /veh TMEM200A (11744735_a_at) / RFU CCDC152 (11751479_a_at) / Fold change /veh CCDC152 (11751479_a_at) / RFU FAM211A (11726209_a_at) / Fold change /veh FAM211A (11726209_a_at) / RFU RGS16 (11746705_a_at) / Fold change /veh RGS16 (11746705_a_at) / RFU VCAN (11755009_s_at) / Fold change /veh VCAN (11755009_s_at) / RFU RHOB (11743442_s_at) / Fold change /veh RHOB (11743442_s_at) / RFU RGS16 (11720943_a_at) / Fold change /veh RGS16 (11720943_a_at) / RFU RGS16 (11720944_at) / Fold change /veh RGS16 (11720944_at) / RFU, VPS4B / Fold change vs veh, VPS4B / RFU, CREB1 / Fold change vs veh, CREB1 / RFU, DNAJC13 / Fold change vs veh, DNAJC13 / RFU, GNAQ / Fold change vs veh, GNAQ / RFU, CDK5R1 / Fold change vs veh, CDK5R1 / RFU, ZRANB3 / Fold change vs veh, ZRANB3 / RFU, CUL4A / Fold change vs veh, CUL4A / RFU, CCNY / Fold change vs veh, CCNY / RFU, UFL1 / Fold change vs veh, UFL1 / RFU, COG3 / Fold change vs veh, COG3 / RFU, DIAPH2 / Fold change vs veh, DIAPH2 / RFU, SKA2 / Fold change vs veh, SKA2 / RFU, AFF3 / Fold change vs veh, AFF3 / RFU, LMF1 / Fold change vs veh, LMF1 / RFU, IPO11 / Fold change vs veh, IPO11 / RFU, DFFB / Fold change vs veh, DFFB / RFU, FOXP1 / Fold change vs veh, FOXP1 / RFU, CARD8 / Fold change vs veh, CARD8 / RFU, STRN3 / Fold change vs veh, STRN3 / RFU, ADK / Fold change vs veh, ADK / RFU, RASSF2 / Fold change vs veh, RASSF2 / RFU, WIPF1 / Fold change vs veh, WIPF1 / RFU, LARP1B / Fold change vs veh, LARP1B / RFU, RASA1 / Fold change vs veh, RASA1 / RFU, RB1 / Fold change vs veh, RB1 / RFU, PPFIA1 / Fold change vs veh, PPFIA1 / RFU, MAT2A / Fold change vs veh, MAT2A / RFU, CCT5 / Fold change vs veh, CCT5 / RFU, WDR92 / Fold change vs veh, WDR92 / RFU, CUX1 / Fold change vs veh, CUX1 / RFU, TTC7A / Fold change vs veh, TTC7A / RFU, TMEM135 / Fold change vs veh, TMEM135 / RFU, DEPTOR / Fold change vs veh, DEPTOR / RFU, CPM / Fold change vs veh, CPM / RFU, DNAJB6 / Fold change vs veh, DNAJB6 / RFU, CACNA2D3 / Fold change vs veh, CACNA2D3 / RFU, DTX4 / Fold change vs veh, DTX4 / RFU, TFCP2 / Fold change vs veh, TFCP2 / RFU, GMCL1 /// GMCL1P1 / Fold change vs veh, GMCL1 /// GMCL1P1 / RFU, AEBP2 / Fold change vs veh, AEBP2 / RFU, SNHG1 /// SNORD22 /// SNORD25 /// SNORD26 /// SNORD27 /// SNORD28 /// SNORD29 /// SNORD31 / Fold change vs veh, SNHG1 /// SNORD22 /// SNORD25 /// SNORD26 /// SNORD27 /// SNORD28 /// SNORD29 /// SNORD31 / Fold change (Aza/veh), C12orf56 (ProbeSet 11735607_a_at) / Fold change (ACY-1035/veh), C12orf56 (ProbeSet 11735607_a_at) / Fold change (Aza/veh), FGFR1OP (ProbeSet 11751329_s_at) / Fold change (ACY-1035/veh), FGFR1OP (ProbeSet 11751329_s_at) / Fold change (Aza/veh), VPS36 (ProbeSet 11739960_a_at) / Fold change (ACY-1035/veh), VPS36 (ProbeSet 11739960_a_at) / RFU SYPL1 (11715823_x_at) / Fold change /veh SYPL1 (11715823_x_at) / RFU IGFBP7 (11715501_s_at) / Fold change /veh IGFBP7 (11715501_s_at) / RFU REEP3 (11722064_at) / Fold change /veh REEP3 (11722064_at) / RFU IGLL1 (11728026_x_at) / Fold change /veh IGLL1 (11728026_x_at): dose or concentration left out as unconfirmed
Conditions: MV-4-11 cells, 48 hours

SMILES: Nc1ccc(-c2cccs2)cc1NC(=O)c1ccc2c(c1)cc(C1CC1)n2CCN1CCOCC1 [ACY-1035]
- RFU FAM212B (11763350_a_at): 31.32 RFU
